Experimental data taken from patent publication US20210395327A1, “Growth Hormone-Releasing Hormone Antagonists and Uses Thereof” (United States Government As Represented By The Department …, priority 2019, published 2021).
“Also recorded” adds a separate entry of the source. Non-standard residues stand in square brackets, D forms with d. Residues, ends and D or L forms follow the SMILES beside them. *: point of attachment. Phenylacetyl(2,3,4,5,6-F5) = O=C(Cc1c(F)c(F)c(F)c(F)c1F)*; Phe(F5) = N[C@@H](Cc1c(F)c(F)c(F)c(F)c1F)C(=O)O; hArg = N=C(N)NCCCC[C@H](N)C(=O)O; 12Ado = NCCCCCCCCCCCC(=O)O; Nle = CCCC[C@H](N)C(=O)O; Orn = NCCC[C@H](N)C(=O)O; Abu = CC[C@H](N)C(=O)O; PhAc = O=C(Cc1ccccc1)*

What was measured:
[1] = tested on: KATOIII stomach cancer cells; experiment: In vitro cell viability, KATOIII; type: cell-based, human; settings: antagonist 5 μM for 72 h, cell proliferation assay; MIA602 = 1
Summary of the method: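 Cells grown to ~60% confluence, serum-starved 24 h in 0.5% FBS, then treated with antagonists at 1, 2.5 or 5 μM or vehicle (0.1% DMSO) in quintuplicate for 72 h, medium replaced every 48 h. Viability read by MTS-type CellTiter 96 AQueous One assay; expressed as inhibitory potency relative to MIA602.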

[2] = tested on: gene expression in mouse lung tissue; experiment: RNAseq and pathway analysis of lung tissue of bleomycin-treated mice; type: in vivo, C57Bl/6J mice; settings: bleomycin 28 days, MIA-602 vs vehicle
Protocol: RNA isolation. RNA was extracted from fixed lung tissue in paraffin blocks using a Quick-RNA™ FFPE Kit (R1008, Zymo Research, Irvine, Calif.) following the manufacturer's protocol (Patel P, Selvarajah S, Guerard K, Bartlett J, Lapointe J, Berman D, Okello J, Park P (2017). PLoS ONE 12:e0179732). Samples were deparaffinized, digested with proteinase K and decrosslinked at 65° C. for 15 minutes. RNA lysis buffer was added and mixed with ethanol. The mixtures were transferred to spin columns to isolate total RNA.
RNAseq and Pathway analyses. At least 10 ng of total RNA was used as input for the KAPA RNA HyperPrep Kit with RiboErase (HMR) to create ribosomal RNA-depleted sequencing libraries, including sample indexing, to allow for multiplexing. Cluster generation and sequencing was done on the Illumina cBOT and HiSeq 3000 using reagents provided by Illumina, finally generating >32 million single-end 100 base reads per sample.
De-multiplexed FASTQ files were created with Illumina supplied scripts in BCL2FASTQ software (v2.17). […]
Gene counts were normalized using trimmed mean of M-values (TMM) method. Differential expression between groups was calculated with the exact test implemented in edgeR (Robinson M, McCarthy D, Smyth G (2010). Bioinformatics 26:139-140). […]

[3] = tested on: RT4 urothelial cancer cells; experiment: In vitro cell viability, RT4; type: cell-based, human; settings: antagonist 5 μM for 72 h, cell proliferation assay; MIA602 = 1
Protocol: (§1) The inhibitory effects of the various synthesized GHRH antagonists were tested in cell proliferation assays in various human cancer cell lines including stomach cancer (KATOIII, N87), colon cancer (HT-29), urothelial cancer (J82, RT4), pancreatic cancer (PANC-1, CFPAC-1), prostatic cancer (PC3), breast cancer (MX-1, HCC1806), ovarian cancer (SK-OV-3, OVCAR-3) and lung cancer (HCC827, H460).
(§2) Cell culture. Human cancer cell lines including pancreatic (PANC-1 and CFPAC-1), lung (HCC827 and H460), stomach (NCI-N87 and KATOIII), urothelial (J82, RT4), prostatic (PC3), breast (MX-1 and HCC 1806), colorectal (HT-29), and ovarian (SK-OV-3 and OVCAR-3) were obtained from the American Type Culture Collection (ATCC) and cultured at 37° C. in a humidified 95% air/5% CO2 atmosphere in the medium recommended by ATCC.
(§3) In vitro cell viability. Cell viability was analyzed as follows: cancer cells including pancreatic (PANC-1 and CFPAC-1), lung (HCC827 and H460), stomach (NCI-N87 and KATOIII), urothelial (J82, RT4), prostatic (PC3) and breast (MX-1 and HCC 1806), colorectal (HT-29) and ovarian (SK-OV-3 and OVCAR-3) were grown on 96 well plates to ˜60% confluence, the cells were starved for 24 h in culture medium containing 0.5% FBS. Cells were then treated with GHRH antagonists MIA602 AVR compounds at concentrations of 1, 2.5 or 5 μM, or vehicle (0.1% DMSO) in quintuplicates for 72 hours. The medium was replaced every 48 hours. Cell viability was measured using CellTiter 96 aqueous one solution kit (Promega). Inhibitory effects of tested AVR compounds in comparison to that of MIA602 are presented as inhibitory potency.
(§4) Inhibitory effects of selected AVR compounds in comparison to that of MIA602 are presented as inhibitory potency (e.g., percentage of inhibition). […] The cell lines tested including lung cancer HCC827 (FIG. 2A), pancreatic cancer CFPAC-1 (FIG. 2B), stomach cancer N87 (FIG. 2C), colon cancer HT-29 (FIG. 2D), breast cancers MX-1 and HCC1806 (FIGS. 2 E, F). […]

[4] = tested on: PAK1-STAT3/NF-κB in gastric cancer cells; settings: Gan et al. 2016; cited from earlier work
[5] = tested on: PC3 prostatic cancer cells; experiment: In vitro cell viability, PC3; type: cell-based, human; settings: antagonist 5 μM for 72 h, cell proliferation assay; MIA602 = 1
Protocol: as §1, §2, §3, §4

[6] = tested on: cellular levels of oxidant stress; settings: Barbutis and Schally 2008; cited from earlier work

Compound	relative inhibitory potency in comparison to MIA-602, Stomach KATOIII [1]	lung gene expression, RNA-seq pathway analysis (in words) [2]	relative inhibitory potency in comparison to MIA-602, Urothelial RT4 [3]	signaling pathways in gastric cancer cells (in words) [4]	relative inhibitory potency in comparison to MIA-602, Prostatic PC3 [5]	cellular levels of oxidant stress (in words) [6]
CCCC[C@H](NC(=O)[C@@H](NC(=O)[C@H](CC(=O)O)NC(=O)[C@H](CCC(N)=O)NC(=O)[C@H](CC(C)C)NC(=O)[C@H](CC(C)C)NC(=O)[C@H](CCCCN)NC(=O)[C@H](CCCNC(=N)N)NC(=O)[C@H](C)NC(=O)[C@H](CO)NC(=O)[C@H](CC(C)C)NC(=O)[C@H](CCC(N)=O)NC(=O)[C@H](CC)NC(=O)[C@H](CC(C)C)NC(=O)[C@@H](NC(=O)[C@H](CCCCN)NC(=O)[C@H](CCCNC(=N)N)NC(=O)[C@H](Cc1ccc(OC)cc1)NC(=O)[C@H](CCCCNC(=N)N)NC(=O)[C@H](C)NC(=O)[C@@H](NC(=O)[C@H](Cc1c(F)c(F)c(F)c(F)c1F)NC(=O)[C@@H](NC(=O)[C@H](C)NC(=O)[C@H](CC(=O)O)NC(=O)[C@@H](CCCNC(=N)N)NC(=O)[C@H](Cc1ccc(O)cc1)NC(=O)CCCCCCCCCCCNC(=O)Cc1c(F)c(F)c(F)c(F)c1F)[C@@H](C)CC)[C@@H](C)O)C(C)C)[C@@H](C)CC)C(=O)N[C@H](CCCNC(=N)N)C(=O)N[C@@H](CCCCNC(=N)N)C(=O)NC [AVR-235] ({Phenylacetyl(2,3,4,5,6-F5)-12Ado}-Y[dR]DAI[Phe(F5)]TA[hArg]Y(Me)RKVL[Abu]QLSARKLLQDI[Nle][dR][hArg]-NHMe)	1.220					
CCCC[C@H](NC(=O)[C@@H](NC(=O)[C@H](CC(=O)O)NC(=O)[C@H](CCC(N)=O)NC(=O)[C@H](CC(C)C)NC(=O)[C@H](CC(C)C)NC(=O)[C@H](CCCN)NC(=O)[C@H](Cc1c[nH]cn1)NC(=O)[C@H](C)NC(=O)[C@H](CO)NC(=O)[C@H](CC(C)C)NC(=O)[C@H](CCC(N)=O)NC(=O)[C@H](CC)NC(=O)[C@H](CC(C)C)NC(=O)[C@@H](NC(=O)[C@H](CCCN)NC(=O)[C@H](Cc1c[nH]cn1)NC(=O)[C@H](Cc1ccc(OC)cc1)NC(=O)[C@H](CCCCNC(=N)N)NC(=O)[C@H](C)NC(=O)[C@@H](NC(=O)[C@H](Cc1c(F)c(F)c(F)c(F)c1F)NC(=O)[C@@H](NC(=O)[C@H](C)NC(=O)[C@H](CC(=O)O)NC(=O)[C@@H](CCCNC(=N)N)NC(=O)[C@H](Cc1ccc(O)cc1)NC(=O)CCCCCCCCCCCNC(=O)Cc1ccccc1)[C@@H](C)CC)[C@@H](C)O)C(C)C)[C@@H](C)CC)C(=O)N[C@H](CCCNC(=N)N)C(=O)N[C@@H](CCCCNC(=N)N)C(N)=O [MIA-602, PhAC-Ada, Tyr D-Arg, Asp, Ala, Ile, 5FPhe, Thr, Ala, Har, Tyr(Me), His, Orn, Val, Leu, Abu, Gin, Leu, Ser, Ala, His, Om, Leu, Leu, Gin, Asp, Ile; Nle, D-Arg, Har NH2, reference compound] ({PhAc-12Ado}-Y[dR]DAI[Phe(F5)]TA[hArg]Y(Me)H[Orn]VL[Abu]QLSAH[Orn]LLQDI[Nle][dR][hArg]-NH2)	1	suppression of the adaptive immune response, T cell differentiation and activation and cytokine production; also recorded: downregulation of T cell receptor complex genes (CD3E, CD3G, CD4, and CD8A)	1	downregulates p21 activated kinase and STAT3 and NFκB; also recorded: inhibits signaling pathways, including PAK1-STAT3/NF-κB	1	decreased
